In patent US5885990A, “Substituted amidinonaphthyl ester derivative” (Torii Pharmaceutical Co., Ltd., priority 1995, dated 1999):
Counter-ions that a name gives are not always drawn.

Tests used:
[1] = tested on: plasminogen activator inhibitor (PAI-1); experiment: Measurement of plasminogen activator inhibitor (PAI-1) antigen quantity in plasma; assay type: in vivo, rat; conditions: SD male rats, 100 mg/kg oral; plasma of Test (2); ELISA; Water control 54.2
Experimental: (3) Test of measurement of plasminogen activator inhibitor (PAI-1) antigen quantity:
Measurement of PAI-1 antigen quantity was conducted using the plasma obtained in the above Test (2).
Previously, 100 μl of a diluted 10 mM carbonate buffered solution of monoclonal antibody to PAI-1 was put in each well of a 96-well micro-titer plate and left to stand for 16 hours at 4° C., followed by washing, four times, with 10 mM phosphate buffer solution containing 0.1% Tween 20 and adding a standard solution and the plasma sample. After leaving for 2 hours at room temperature and washing again four times, 100 μl of an enzyme-labelled PAI-1 polyclonal antibody was added to carry out reaction at room temperature for 2 hours. After excess antibody was washed, 100 μl of citric acid buffer solution containing 10 mg of o-phenylenediamine and 0.1% hydrogen peroxide was added, followed by leaving it for 30 minutes at 30° C. to cause color formation. After the reaction was terminated by the addition of 50 μl of 2N sulfuric acid, absorbance at 405 nm was measured by a micro-plate reader to determine the PAI-1 antigen quantity in the plasma sample.

[2] = tested on: blood plasmin like activity; experiment: Determination of blood plasmin like activity using synthetic substrate (plasma after oral dosing); assay type: in vivo, rat; conditions: SD male rats, 100 mg/kg oral, substrate Boc-Val-Leu-Lys-MCA, pH 8.5, 37° C., 30 minutes, Water control 0.07
Experimental: (2) Test of determination of blood plasmin like activity using synthetic substrate:
For the test, SD male rats (8 weeks old) after fasted overnight were used, and 100 mg/kg of the present compound was orally administered to the rats, and blood was drawn, with time, from the descending aorta as citrate-containing blood and subjected to centrifugation to obtain plasma. Water was orally administered to the rats of control group and plasma was similarly obtained.
To the plasma obtained were added 0.1M borate buffer solution (pH 8.5) and Boc-Val-Leu-Lys-MCA and incubation was conducted at 37° C. for 30 minutes.

[3] = tested on: pulmonary thrombosis of mouse models (thrombin-induced); experiment: Preventive effect on death due to pulmonary thrombosis of mouse models; assay type: in vivo; set-up: key: ratio of survival rate to positive control group's survival rate; conditions: ddy male mice, 10 mg/kg oral; thrombin 10 units/mouse via caudal vein after 6 hours; survival rate 16 hours after thrombin, as ratio to survival rate of positive control Sepimostat mesilate
Experimental: (1) Preventive effect on death due to pulmonary thrombosis of mouse models:
For experiment, ddy male mice after a fast of 6 hours were used and 10 mg/kg of the present compound was orally administered. […] After lapse of 6 hours, 10 units/mouse of thrombin was administered to the mice through caudal vein to cause thrombosis for the mice. After 16 hours from thrombin-induction, mortality was checked and the preventive effect on death (survival rate) was indicated by the ratio to the survival rate of the positive control group.

SMILES | PAI-1 antigen quantity [1] | Plasmin like activity [2] | Preventive effect on death [3]
N=C(N)c1ccc2c(CC(N)=O)c(OC(=O)c3ccc(NC4=NCCN4)cc3)ccc2c1 [Example 1, 6-amidino-1-carbamoylmethyl-2-naphthyl 4-[(4,5-dihydro-1H-imidazol-2-yl)amino]-benzoate.dihydrochloride] | 28.5 ng/mL | 0.37 nmol/min/mL | 1.16
CC(=O)NCCN=CNCNc1ccc(C(=O)Oc2ccc3cc(C(=N)N)ccc3c2CC(N)=O)cc1.Cl.Cl [Example 3, 6-amidino-1-carbamoylmethyl-2-naphthyl 4-[(2-acetylaminoethyl)iminomethylaminomethylamino]benzoate.dihydrochloride] |  |  | 1.09
N=C(N)c1ccc2c(CCC(N)=O)c(OC(=O)c3ccc(NC4=NCCN4)cc3)ccc2c1 [Example 5, 6-amidino-1-(2-carbamoylethyl)-2-naphthyl 4-[(4,5-dihydro-1H-imidazol-2-yl)amino]-benzoate.dihydrochloride] |  |  | 1.00
N=C(NCCO)Nc1ccc(C(=O)Oc2ccc3cc(C(=N)N)ccc3c2CC(N)=O)cc1 [Example 7, 6-amidino-1-carbamoylmethyl-2-naphthyl 4-[(2-hydroxyethyl)aminoiminomethylamino]-benzoate.dihydrochloride] |  | 0.62 nmol/min/mL | 1.05
N=C(N)c1ccc2c(CC(N)=O)c(OC(=O)c3ccc([N+](=O)[O-])cc3)ccc2c1 [Example 11, 6-amidino-1-carbamoylmethyl-2-naphthyl 4-nitrobenzoate.hydrochloride] |  |  | 1.12
N=C(N)c1ccc2c(CC(N)=O)c(OC(=O)c3ccc(N)cc3)ccc2c1 [Example 12, 6-amidino-1-carbamoylmethyl-2-naphthyl 4-aminobenzoate.dihydrochloride] |  |  | 1.05
CN(C)c1ccc(C(=O)Oc2ccc3cc(C(=N)N)ccc3c2CC(N)=O)cc1 [Example 15, 6-amidino-1-carbamoylmethyl-2-naphthyl 4-dimethylaminobenzoate.dihydrochloride] |  |  | 1.05
CN(C)CCNC(=N)Nc1ccc(C(=O)Oc2ccc3cc(C(=N)N)ccc3c2CC(N)=O)cc1 [Example 17, 6-amidino-1-carbamoylmethyl-2-naphthyl 4-[(2-dimethylaminoethyl)aminoiminomethylamino]benzoate.trihydrochloride] |  | 0.62 nmol/min/mL | 
N=C(NCCN1CCCC1)Nc1ccc(C(=O)Oc2ccc3cc(C(=N)N)ccc3c2CC(N)=O)cc1 [Example 24] |  | 0.55 nmol/min/mL | 
CNC(=N)Nc1ccc(C(=O)Oc2ccc3cc(C(=N)N)ccc3c2CC(N)=O)cc1 [Example 26, 6-amidino-1-carbamoylmethyl-2-naphthyl 4-methylaminoiminomethylaminobenzoate.dihydrochloride] |  | 0.60 nmol/min/mL | 
CN=C(NC)Nc1ccc(C(=O)Oc2ccc3cc(C(=N)N)ccc3c2CC(N)=O)cc1 [Example 27, 6-amidino-1-carbamoylmethyl-2-naphthyl 4-methylaminomethyliminomethylaminobenzoate.dihydrochloride] |  | 0.52 nmol/min/mL | 
N=C(N)c1ccc2c(CC(N)=O)c(OC(=O)c3ccc(NC4=NCCS4)cc3)ccc2c1 [Example 31, 6-amidino-1-carbamoylmethyl-2-naphthyl 4-[(4,5-dihydrothiazol-2-yl)amino]-benzoate.dihydrochloride] |  |  | 1.00
COC(=O)Cc1c(OC(=O)c2ccc(NC3=NCCN3)cc2)ccc2cc(C(=N)N)ccc12 [Example 39, 6-amidino-1-methoxycarbonylmethyl-2-naphthyl 4-[(4,5-dihydro-1H-imidazol-2-yl)amino]benzoate.dimethanesulfonate] |  | 0.58 nmol/min/mL | 1.19
Cl.Cl.N=C(N)Nc1ccc(C(=O)Oc2ccc3cc(C(=N)N)ccc3c2C=CC(N)=O)cc1 [Example 46, 6-amidino-1-(2-carbamoylvinyl)-2-naphthyl 4-aminoiminomethylaminobenzoate.dihydrochloride] |  | 0.63 nmol/min/mL | 
CN(C)C(=O)COC(=O)c1c(OC(=O)c2ccc(NC3=NCCN3)cc2)ccc2cc(C(=N)N)ccc12 [Example 48, 6-amidino-1-dimethylcarbamoylmethoxycarbonyl-2-naphthyl 4-[(4,5-dihydro-1H-imidazol-2-yl)amino]benzoate.dihydrochloride] |  |  | 0.96
